Measurements taken from patent US20220000860A1, “COMPOUNDS, COMPOSITIONS, AND METHODS FOR TREATING HUMAN IMMUNODEFICIENCY VIRUS” (OYAGEN, INC., priority 2017, published 2022).
pEC50, pIC50: −log10 of the molar value. Read-outs that look alike come from different tables or passages of the source.

What was measured:
98US_MSC5016 (Subtype C) = assay: PBMC Acute Infection, 98US_MSC5016; type: cell-based, HIV
Description: (§1) PHA-stimulated cells from at least two normal donors were pooled (i.e. mixed together), diluted in fresh medium to a final concentration of 1×10^6 cells/mL, and plated in the interior wells of a 96-well round bottom microplate at 50 μL/well (5×10^4 cells/well). Pooling of mononuclear cells from more than one donor was used to minimize the variability observed between individual donors in quantitative and qualitative differences in HIV infection and overall response to the PHA and IL-2 of primary lymphocyte populations. Each plate contained virus control wells (cells plus virus) and experimental wells (drug plus cells plus virus) of either 00KE_KER2008 (Subtype A), IIIB (Subtype B), or 98US_MSC5016 (Subtype C). Test drug dilutions were prepared at a 2×concentration and 100 μL of each concentration was placed in appropriate wells. Fifty μL of a predetermined dilution of virus stock was placed in each test well (final MOI≅0.1). After this period, cell-free supernatant samples were collected for analysis of reverse transcriptase (RT) activity with an RT assay. […] In the Table below SI50=CC50/EC50 and SI90=CC90/EC90.

IIIB (Subtype B) = assay: PBMC Acute Infection, IIIB; type: cell-based, HIV
Description: as §1

[1] = PBMC Acute Infection, cytotoxicity (CC50/CC90); type: cell-based; conditions: human
Description: as §1

[2] = system: Vif-dependent APOBEC3G degradation; assay: Vif-Dependent APOBEC3G Degradation Assay; type: cell-based, HIV
Description: APOBEC3G-V5-mCherry was stably expressed from the pIRES-P vector in 293T cells under puromycin selection. Fifty ng of plasmid expressing Vif-HA (accession no. AB573087) was transfected into the cells in 384-well format with Turbofect on a liquid handling robot. Four hours after transfection the compounds were added to cells in a range from 0-15 μM. Twenty-four hours after compound addition mCherry fluorescence was read on a BioTek Synergy4 plate reader (ex=587 nm, em=610 nm). Relative fluorescence units (RFU) from compound treated wells were quantified using thresholds set by the −Vif (positive control) and +Vif (negative control).

00KE_KER2008 (Subtype A) = assay: PBMC Acute Infection, 00KE_KER2008; type: cell-based, HIV
Description: as §1

topoisomerase I (TOP1) [3] = target: T1, topoisomerase I (TOP1) (Homo sapiens, UniProt P11387); conditions: comparison statement; cited from earlier work
T1 sequence (P11387 1-765): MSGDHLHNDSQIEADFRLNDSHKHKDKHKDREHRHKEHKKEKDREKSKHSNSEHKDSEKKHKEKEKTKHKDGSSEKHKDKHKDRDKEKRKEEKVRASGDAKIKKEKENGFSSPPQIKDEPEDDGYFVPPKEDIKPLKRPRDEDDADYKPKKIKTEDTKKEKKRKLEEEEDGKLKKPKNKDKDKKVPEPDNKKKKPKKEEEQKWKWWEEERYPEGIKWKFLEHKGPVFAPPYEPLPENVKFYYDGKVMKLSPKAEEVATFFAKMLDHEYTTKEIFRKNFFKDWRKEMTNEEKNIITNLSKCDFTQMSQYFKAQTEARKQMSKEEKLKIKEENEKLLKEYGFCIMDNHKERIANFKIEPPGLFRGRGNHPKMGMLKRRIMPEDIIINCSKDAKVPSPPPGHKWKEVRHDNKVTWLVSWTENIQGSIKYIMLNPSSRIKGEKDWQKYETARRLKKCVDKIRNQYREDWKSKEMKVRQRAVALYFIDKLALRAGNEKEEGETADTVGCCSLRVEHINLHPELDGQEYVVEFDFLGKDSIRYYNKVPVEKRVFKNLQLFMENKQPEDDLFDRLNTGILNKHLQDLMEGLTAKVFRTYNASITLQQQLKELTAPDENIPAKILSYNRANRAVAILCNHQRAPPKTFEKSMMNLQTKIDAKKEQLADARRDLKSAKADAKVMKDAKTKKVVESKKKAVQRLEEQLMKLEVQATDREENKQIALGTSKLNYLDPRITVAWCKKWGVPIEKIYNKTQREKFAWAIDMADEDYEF

[4] = target: T2, recombinant HIV (pNL4-3) heterodimeric (p66/p51) Reverse Transcriptase (Human immunodeficiency virus type 1 group M subtype B, UniProt P12497); assay: reverse transcriptase assay; type: biochemical
T2 construct: purified recombinant HIV (pNL4-3) heterodimeric (p66/p51) Reverse Transcriptase (RT); purchased
Description: For the assays listed in Table I, the integrase assay was conducted using the XpressBio HIV-1 Integrase Assay Kit according to the manufacture's protocol. The protease assay was conducted with the Anthranilyl (Abz)-HIV Protease Substrate (Bachem H-2992), a hexapeptide FRET substrate derived from the p24/p15 cleavage site of the viral gag-pol poly-protein, which allows the screening of potential HIV protease inhibitors. 1 mM Abz-Substrate was diluted with Assay Buffer to a working stock of 20 μM. A 50 μM stock HIV-1 protease (received from Sook-kyung Lee (UNC)) was diluted with Assay Buffer (50 mM HEPES, pH 6.8, 150 mM NaCl, and 1% DMSO) to a working stock of 100 nM. 2 μl 100 nM HIV-1 Protease along with 2 uL 20 μM Abz Substrate was added into each well and incubated at room temperature (avoiding light) for 1 hour before being read on an Envision plate reader (Perkin Elmer) excitation at 280 nm, emission at >435 nm. The reverse transcriptase assay utilized purified recombinant HIV (pNL4-3) heterodimeric (p66/p51) Reverse Transcriptase (RT) that was purchased from a commercially available source. The assay was performed in 96-well filter plate, where RT activity was determined by the incorporation of radiolabeled deoxyribonucleotides into the newly synthesized DNA strand. The RT reaction mixture contained in vitro transcribed viral RNA derived from the HIV-1NL4-3 5′-LTR region (position 454 to 652) and primer that is complementary to the primer binding site (PBS, nucleotide residues nucleotides 636 to 652), radiolabeled deoxyribonucleotide, dNTPs and reverse transcriptase. Briefly, the reaction was carried out in a volume of 50 μl containing 50 mM Tris HCl, pH 7.8, 50 mM KCl, 5 mM MgCl2, 1 mM DTT, 50 μM each of dATP, dCTP, dGTP, 50 nM dTTP, 1 μCi of [^3H] dTTP (70-90 Ci/mM) and 5 nM template/primer. The reaction was initiated by the addition of 10 nM RT. For compound screening, serially diluted test articles were added to the reaction followed by the addition of RT. The reaction mixture was incubated at 37° C. for 1 h, and then quenched by the addition of ice-cold trichloroacetic acid (TCA) to the final concentration of 10%. The plate was incubated at 4° C. for 1 h to precipitate the synthesized DNA, then rinsed 3-times with 10% TCA and 1 time with 70% ethanol. After addition of 25 μl scintillation fluid to completely dried wells, radioactivity is counted by MicroBeta scintillation counter. The reduction of radioactivity represents the potency of compound inhibition.

topoisomerase I (TOP1) [5] = target: T1, topoisomerase I (TOP1); assay: topoisomerase I inhibition
[6] = target: T3, pNL4-3 Vif (Vif multimerization) (Human immunodeficiency virus type 1 group M subtype B, UniProt P12504); assay: Vif FqRET Multimerization Assay; type: cell-based, HIV
T3 construct: expressed in transfected cells; host or cells: HEK293T
Excerpt: The quenched fluorescence resonance energy transfer (FqRET) cell-based assay utilized expression of pNL4-3 Vif (accession no. M19921) tagged separately with either a EGFP fluorophore (EGFP-V5-Vif) or a REACh2 quencher (Vif-HA-REACh2) in the pIRES-P vector. The Vif multimerization assay was established through robotic co-transfection of HEK293T (293T) cells with Turbofect (Thermo) and optimized for input plasmid ratio (1:4, fluorophore to quencher) to achieve maximum quench of fluorescent signal. EGFP fluorescence was quantified 24 hours after transfection with a BioTek Synergy4 plate reader (ex=485 nm, em=528 nm) followed by the addition of 0-30 μM compound. The plates were read a second time 24 hours after compound addition. The differential between the first and second read in each well was quantified relative to the DMSO control to determine the change in relative fluorescence units (ΔRFU)
The interaction of 2 molecules of Vif (i.e. dimerization) enables quenching of Enhanced Green Fluorescent Protein (EGFP) signal by Resonance Energy Accepting Chromophore 2 (REACh2), a dark mutant of yellow fluorescent protein that is capable of accepting the EGFP donor fluorescence and quenching its signal without an acceptor signal.

PBMCs = assay: PBMC Acute Infection, cytotoxicity (CC50/CC90); type: cell-based
Description: as §1

[7] = Human immunodeficiency virus 1, PBMC
[8] = Human immunodeficiency virus 1, IIIB
[9] = row of isolate 00KE-KER2008, subtype A
[10] = Human immunodeficiency virus 1, read-out: A3G degradation at
[11] = row of isolate 98US_MSC5016, subtype C

T3 sequence (P12504 whole entry): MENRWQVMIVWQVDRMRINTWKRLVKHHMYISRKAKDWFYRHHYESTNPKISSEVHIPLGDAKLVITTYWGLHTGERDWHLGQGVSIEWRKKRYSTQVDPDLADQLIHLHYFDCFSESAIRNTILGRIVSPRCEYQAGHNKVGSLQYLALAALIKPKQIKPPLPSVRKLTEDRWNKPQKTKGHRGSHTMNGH

CCc1c2c(nc3ccc(OC(=O)N4CCC(N5CCCCC5)CC4)cc13)-c1cc3c(c(=O)n1C2)CNC(=O)[C@]3(O)CC [Irino-L, (S)-4,11-diethyl-4-hydroxy-3,14-dioxo-1,2,3,4,12,14-hexahydroquinolino[2′,3′:3,4]pyrrolo[1,2-b][2,7]naphthyridin-9-yl [1,4′-bipiperidine]-1′-carboxylate]
pEC50 (98US_MSC5016 (Subtype C); [7]): 5.73 | EC90 (98US_MSC5016 (Subtype C); [7]): 7.11 µM | pEC50 (IIIB (Subtype B); [8]): 5.64 | EC90 (IIIB (Subtype B); [8]): 7.92 µM | CC50 [1, 9]: 17.7 µM | CC90 [1, 9]: 82.8 µM | pEC50 [2, 10]: 5.30 | pEC50 (00KE_KER2008 (Subtype A); [7]): 5.65 | EC90 (00KE_KER2008 (Subtype A); [7]): 7.71 µM

CC[C@@]1(O)C(=O)OCc2c1cc1n(c2=O)Cc2cc3ccccc3nc2-1 [camptothecin]
inhibition of topoisomerase I (TOP1) (result in words) (topoisomerase I (TOP1) [3]): inhibit

Cc1ccnc2c1NC(=O)c1cccnc1N2C1CC1 [nevirapine, reference compound]
pIC50 [4]: 6.64

CC[C@@]1(O)C(=O)NCc2c1cc1n(c2=O)Cc2cc3c(N)cccc3nc2-1 [Compound O5-9A, (S)-10-Amino-4-ethyl-4-hydroxy-1,2-dihydroquinolino[2′,3′:3,4]pyrrolo[1,2-b][2,7]naphthyridine-3,14(4H,12H)-dione]
inhibition of topoisomerase I (TOP1) (result in words) (topoisomerase I (TOP1) [5]): do not inhibit | pEC50 (98US_MSC5016 (Subtype C); Human immunodeficiency virus 1, PBMC, isolate 98US_MSC5016, subtype C, RT activity readout, read-out: EC50): 7.22 | EC90 (98US_MSC5016 (Subtype C); Human immunodeficiency virus 1, PBMC, isolate 98US_MSC5016, subtype C, RT activity readout, read-out: EC90): 0.22 µM | pEC50 (IIIB (Subtype B); Human immunodeficiency virus 1, isolate IIIB, subtype B, RT activity readout, read-out: EC50): 6.82 | EC90 (IIIB (Subtype B); Human immunodeficiency virus 1, isolate IIIB, subtype B, RT activity readout, read-out: EC90): 0.31 µM | pEC50 [6]: 5.41 | Vif multimerization (result in words) [6]: block | CC50 [1, 9]: 9.32 µM | CC90 [1, 9]: > 100 µM | CC50 [1, 11]: 9.32 µM | CC50 ([1]; row of isolate IIIB, subtype B): 10 µM | CC90 (PBMCs; [11]): > 100 µM | CC90 (PBMCs; row of isolate IIIB, subtype B): > 100 µM | Vif-dependent A3G degradation (result in words) [2]: block | pEC50 ([2]; Human immunodeficiency virus 1, HEK-293T, 24 h, read-out: EC50, A3G Degradation Assay): 5.92 | pEC50 [2, 10]: 6.00 | pEC50 (00KE_KER2008 (Subtype A); Human immunodeficiency virus 1, PBMC, isolate 00KE-KER2008, subtype A, RT activity readout, read-out: EC50): 7.30 | EC90 (00KE_KER2008 (Subtype A); Human immunodeficiency virus 1, PBMC, isolate 00KE-KER2008, subtype A, RT activity readout, read-out: EC90): 0.23 µM
